We go through 30 molecules from patent publication US20260125400A1, “TYK2 DEGRADERS AND USES THEREOF” (Kymera Therapeutics, Inc., priority 2023, published 2026).

The target in this assay is T1, TYK2 (Homo sapiens, UniProt P29597).
T1 construct: Degradation of TYK2 in cells was quantitatively measured using Meso Scale Discovery (MSD) technology; endogenous in cells; host or cells: OCI-LY10
As to the kind of experiment: TYK2 MSD degradation in OCI-LY10 cells. The note with it: TYK2 degradation in OCI-LY10 cells, 4 to 24 hours incubation; for DC50: read-out: TYK2 MSD OCI-LY10 Rel-DC50. The assay is classed as cell-based. How it is done: Example 7. TYK2 MSD Degradation
Degradation of TYK2 in cells was quantitatively measured using Meso Scale Discovery (MSD) technology. OCI-LY10 cells were seeded in 96-well plates with a density of 0.4 million cells per well in 100 μl fresh media. Compounds were then added to the assay plates with a final top concentration of 1 to 10 μM in a 1:3 dilution series with total of 9 doses. The assay plates were then incubated for 4 to 24 hours at 37° C. under […]. The assay plates were then centrifuged for 5 minutes, and the cell pellets were treated with 100 μl/well RIPA lysis buffer (Boston Bioproducts, BP-115D) with protease and phosphatase inhibitors (Roche, 05892791001 and 04906837001). To prepare MSD assay plates (MSD, L15XA), the plates were coated with the capture antibody (Santa Cruz Biotechnology, SC-5271) in PBS, at 40 μl/well. The plates were then incubated overnight at 4° C., washed 3 times with 150 μl/well TBST buffer (Cell Signaling Technology, 9997S) and blocked with 150 μl/well blocking buffer (MSD, R93BA-4). Cell lysates were then added to MSD assay plates and the plates were incubated at room temperature for 1 hour. The plates were then washed 3 times with 150 μl/well TBST buffer and 25 μl/well primary detection antibody (Cell Signaling Technology, #9312). The assay plates were then incubated at room temperature for 1 hour, washed 3 times with 150 μl/well TBST buffer, and 25 μl/well secondary detection antibody, SULFO-TAG anti-rabbit antibody (MSD, R32AB-1) were added. The assay plates were then incubated at room temperature for 1 hour, washed 3 times with 150 μl/well TB ST buffer, and 150 μl/well MSD reading buffer (MSD, R92TC-2) were added. The plates were then analyzed by an MSD reader. The data was analyzed by GraphPad Prism and the dose dependent TYK2 degradation was fit using the four-parameter inhibitor vs. response nonlinear regression.
The letter codes for TYK2 DC50 include: A (<1 nM); B (i to <10 nM); C (10 to 100 nM); D (>100 nM); and E (not tested). The letter codes for TYK2 Dmax % include: A (>90%); B (90 to >75%); C (75 to 50%); D (<50%); and E (not tested).

Some results are limits rather than exact numbers.

T1 sequence (P29597 whole entry): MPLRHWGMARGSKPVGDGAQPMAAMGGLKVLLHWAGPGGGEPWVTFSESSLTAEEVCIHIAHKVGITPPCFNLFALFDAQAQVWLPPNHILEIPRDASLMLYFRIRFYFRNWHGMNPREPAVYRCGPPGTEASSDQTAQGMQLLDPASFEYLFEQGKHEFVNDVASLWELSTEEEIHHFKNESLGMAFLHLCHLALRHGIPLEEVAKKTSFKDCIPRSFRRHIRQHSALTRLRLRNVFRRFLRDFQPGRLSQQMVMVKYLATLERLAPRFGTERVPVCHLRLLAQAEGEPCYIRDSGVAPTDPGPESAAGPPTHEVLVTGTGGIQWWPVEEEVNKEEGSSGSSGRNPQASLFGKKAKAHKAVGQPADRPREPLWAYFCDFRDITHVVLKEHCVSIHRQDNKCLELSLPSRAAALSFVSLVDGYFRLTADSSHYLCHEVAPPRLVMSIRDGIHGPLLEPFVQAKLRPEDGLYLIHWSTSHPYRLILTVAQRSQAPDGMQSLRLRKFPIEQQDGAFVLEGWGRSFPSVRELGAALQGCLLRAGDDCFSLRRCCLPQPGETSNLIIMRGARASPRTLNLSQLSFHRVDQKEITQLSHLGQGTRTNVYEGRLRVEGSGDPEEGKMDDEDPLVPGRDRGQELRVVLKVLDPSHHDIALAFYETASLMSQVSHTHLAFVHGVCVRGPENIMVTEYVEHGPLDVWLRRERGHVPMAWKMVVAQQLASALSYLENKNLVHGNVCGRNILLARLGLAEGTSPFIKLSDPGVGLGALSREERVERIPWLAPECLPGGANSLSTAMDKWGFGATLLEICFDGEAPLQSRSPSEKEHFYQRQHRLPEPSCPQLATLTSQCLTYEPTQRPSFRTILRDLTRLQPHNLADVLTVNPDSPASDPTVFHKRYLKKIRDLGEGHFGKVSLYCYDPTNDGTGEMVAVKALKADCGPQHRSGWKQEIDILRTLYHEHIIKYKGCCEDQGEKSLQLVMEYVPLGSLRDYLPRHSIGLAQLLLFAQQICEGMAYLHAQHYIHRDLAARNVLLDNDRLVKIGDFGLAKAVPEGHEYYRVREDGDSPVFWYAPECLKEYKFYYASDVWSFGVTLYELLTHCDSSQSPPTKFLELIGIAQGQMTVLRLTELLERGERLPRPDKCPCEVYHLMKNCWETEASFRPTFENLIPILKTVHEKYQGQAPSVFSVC

One may read the DC50 as the midpoint of the concentration-degradation curve. Take `CNc1cc(N2CCc3c(CN4CCC5(CC4)CCN(C(=O)c4ccc(Cl)c(N6CCC(=O)NC6=O)c4)CC5)cccc32)nn2c(C(=O)NC3CC3)cnc12` [I-58]: the “TYK2 MSD OCI-LY10 Dmax %” value is given as “D (D (<50%))” and the DC50 is > 100 nM.
The like results for `CNc1cc(N2CCc3c(C4CCCN(CC5CC6(C5)CN(c5ccc7c(c5)n(C)c(=O)n7C5CCC(=O)NC5=O)C6)C4)cccc32)nn2c(C(=O)NC3CC3)cnc12` (stereo not drawn) [I-59] were, in that order, “D (D (<50%))” and < 1 nM.
The like results for `CNc1cc(N2CCc3c(C4CCN(CC5CC6(CCN(C(=O)c7ccc(Cl)c(N8CCC(=O)NC8=O)c7)CC6)C5)CC4)cccc32)nn2c(C(=O)NC3CC3)cnc12` [I-60] were, in that order, “C (C (75 to 50%))” and < 10 nM.
Take `CNc1cc(N2CCc3c(-c4ccc(CN5CCC(N6CCN(c7ccc8c(c7)n(C)c(=O)n8C7CCC(=O)NC7=O)CC6)C(F)(F)C5)cn4)cc(F)cc32)nn2c(C(=O)NC3CC3)cnc12` (stereo not drawn) [I-61]: the “TYK2 MSD OCI-LY10 Dmax %” value is “B (B (90 to >75%))” and the DC50 was < 10 nM.
As to `CNc1cc(N2CCc3c(CN4CCC(N5CCC(N6CCN(c7ccc8c(c7)n(C)c(=O)n8C7CCC(=O)NC7=O)CC6)CC5)C(F)(F)C4)cccc32)nn2c(C(=O)NC3CC3)cnc12` (stereo not drawn) [I-62], the “TYK2 MSD OCI-LY10 Dmax %” value is on record as “B (B (90 to >75%))” and the half-maximal degradation concentration (DC50) was < 1 nM.
For `CNc1cc(N2CCc3c(-c4ccc(CN5CC6(CCN(C(=O)c7ccc(C)c(N8CCC(=O)NC8=O)c7)CC6)C5)cn4)cccc32)nn2c(C(=O)N[C@@H]3C[C@@H]3F)cnc12` [I-63] the same measures were “A (A (>90%))” and < 1 nM.
For `CNc1cc(N2CCc3c(-c4ccc(CN5CC6(CCN(C(=O)c7ccc(OC)c(N8CCC(=O)NC8=O)c7)CC6)C5)cn4)cccc32)nn2c(C(=O)N[C@@H]3C[C@@H]3F)cnc12` [I-64] the same measures were “A (A (>90%))” and < 1 nM.
Turning to `CNc1cc(N2CCc3c(-c4ccc(CN5CCC6(CC5)CCN(c5cc(Cl)cc(NC7CCC(=O)NC7=O)c5)CC6)cn4)cccc32)nn2c(C(=O)NC3CC3)cnc12` (stereo not drawn) [I-65], the “TYK2 MSD OCI-LY10 Dmax %” value is recorded as “D (D (<50%))” and the DC50 was > 100 nM.
The like results for `CNc1cc(N2CCc3c(-c4ccc(CN5CCC6(CC5)CCN(c5ccc(Cl)c(NC7CCC(=O)NC7=O)c5)CC6)cn4)cccc32)nn2c(C(=O)NC3CC3)cnc12` (stereo not drawn) [I-66] were, in that order, “D (D (<50%))” and > 100 nM.
For the molecule `CNc1cc(N2CCc3c(-c4ccc(CN5CC6(CCN(C(=O)c7ccc(Cl)c(N8CCC(=O)NC8=O)c7)CC6(F)F)C5)cn4)cccc32)nn2c(C(=O)N[C@@H]3C[C@@H]3F)cnc12` [I-67], the “TYK2 MSD OCI-LY10 Dmax %” value is recorded as “A (A (>90%))” and the DC50 is < 1 nM.
The like results for `CNc1cc(N2CCc3c(-c4cc(CN5CCN(c6ccc7c(c6)n(C)c(=O)n7C6CCC(=O)NC6=O)CC5)ccn4)cccc32)nn2c(C(=O)NC3CC3)cnc12` (stereo not drawn) [I-68] were, in that order, “B (B (90 to >75%))” and < 1 nM.
The like results for `CNc1cc(N2CCc3c(-c4ccc(CN5CCC(N6CCN(c7ccc8c(c7F)n(C)c(=O)n8C7CCC(=O)NC7=O)CC6)C(F)(F)C5)cn4)cccc32)nn2c(C(=O)NC3CC3)cnc12` (stereo not drawn) [I-69] were, in that order, “B (B (90 to >75%))” and < 10 nM.
For `CNc1cc(N2CCc3c(-c4cc(CN5CCN(c6ccc7c(c6F)n(C)c(=O)n7C6CCC(=O)NC6=O)CC5)ccn4)cccc32)nn2c(C(=O)NC3CC3)cnc12` (stereo not drawn) [I-71] the same measures were “B (B (90 to >75%))” and < 1 nM.
With `CNc1cc(N2CCc3c(CN4CCC(N5CC(N6CCN(c7ccc8c(c7)n(C)c(=O)n8C7CCC(=O)NC7=O)CC6)C5)C(F)(F)C4)cccc32)nn2c(C(=O)N[C@@H]3C[C@@H]3F)cnc12` (stereo partly drawn) [I-72], the “TYK2 MSD OCI-LY10 Dmax %” value was “B (B (90 to >75%))” and the DC50 is < 1 nM.
Turning to `CNc1cc(N2CCc3c(-c4ccc(CN5CC6(CCN(C(=O)c7ccc(Cl)c(N8CCC(=O)NC8=O)c7)CC6)C5)cc4)cccc32)nn2c(C(=O)N[C@@H]3C[C@@H]3F)cnc12` [I-73], the “TYK2 MSD OCI-LY10 Dmax %” value is reported as “C (C (75 to 50%))” and the DC50 was < 10 nM.
For `CNc1cc(N2CCc3c(-c4ccc(CN5CCC6(CC5)CCN(c5ccc(N7CCC(=O)NC7=O)c(Cl)c5)CC6)cn4)cccc32)nn2c(C(=O)N[C@@H]3C[C@@H]3F)cnc12` [I-74] the same measures were “D (D (<50%))” and < 10 nM.
Consider `CNc1cc(N2CCc3c(-c4ccc(OC5CCC6(CC5)CCN(C(=O)c5ccc(Cl)c(N7CCC(=O)NC7=O)c5)CC6)cn4)cccc32)nn2c(C(=O)N[C@@H]3C[C@@H]3F)cnc12` [I-75], for which the “TYK2 MSD OCI-LY10 Dmax %” value is “C (C (75 to 50%))” and the 50% degradation concentration (DC50) is < 10 nM.
The like results for `CNc1cc(N2CCc3c(-c4ccc(OC5CC6(CCN(C(=O)c7ccc(Cl)c(N8CCC(=O)NC8=O)c7)CC6)C5)cn4)cccc32)nn2c(C(=O)N[C@@H]3C[C@@H]3F)cnc12` [I-76] were, in that order, “B (B (90 to >75%))” and < 1 nM.
The like results for `CNc1cc(N2CCc3c(-c4ccc(CN5CCC6(CC5)CCN(c5ccc(C7CCC(=O)NC7=O)c(Cl)c5)CC6)cn4)cccc32)nn2c(C(=O)N[C@@H]3C[C@@H]3F)cnc12` (stereo partly drawn) [I-77] were, in that order, “D (D (<50%))” and < 10 nM.
The like results for `CNc1cc(N2CCc3c(-c4cc(CN5CCN(C(=O)c6ccc(Cl)c(N7CCC(=O)NC7=O)c6)CC5)ccn4)cccc32)nn2c(C(=O)N[C@@H]3C[C@@H]3F)cnc12` [I-78] were, in that order, “D (D (<50%))” and < 10 nM.
Take `CNc1cc(N2CCc3c(-c4cc(CN5CC6(CCN(C(=O)c7ccc(Cl)c(N8CCC(=O)NC8=O)c7)CC6)C5)ccn4)cccc32)nn2c(C(=O)N[C@@H]3C[C@@H]3F)cnc12` [I-79]: the “TYK2 MSD OCI-LY10 Dmax %” value is “D (D (<50%))” and the half-maximal degradation concentration (DC50) was < 10 nM.
The like results for `CNc1cc(N2CCc3c(-c4cc(CN5CCN(c6ccc7c(c6F)n(C)c(=O)n7C6CCC(=O)NC6=O)CC5)ccn4)cccc32)nn2c(C(N)=O)cnc12` (stereo not drawn) [I-81] were, in that order, “B (B (90 to >75%))” and < 1 nM.
For the molecule `CNc1cc(N2CCc3c(-c4ccc(CN5CCC6(CC5)CCN(C(=O)c5ccc(Cl)c(N7CCC(=O)NC7=O)c5)C6)cn4)cccc32)nn2c(C(=O)N[C@H]3C[C@H]3F)cnc12` [I-82], the “TYK2 MSD OCI-LY10 Dmax %” value is “B (B (90 to >75%))” and the DC50 is < 1 nM.
As to `CNc1cc(N2CCc3c(-c4ccc(CN5CCC(N6CCN(c7ccc(C8CCC(=O)NC8=O)c(Cl)c7)CC6)C(F)(F)C5)cn4)cccc32)nn2c(C(=O)N[C@H]3C[C@H]3F)cnc12` (stereo partly drawn) [I-83], the “TYK2 MSD OCI-LY10 Dmax %” value is recorded as “D (D (<50%))” and the DC50 is < 10 nM.
The like results for `CNc1cc(N2CCc3c(CN4CCC(N5CCC(C6CCN(c7ccc8c(c7)n(C)c(=O)n8C7CCC(=O)NC7=O)CC6)CC5)C(F)(F)C4)cccc32)nn2c(C(=O)N[C@H]3C[C@H]3F)cnc12` (stereo partly drawn) [I-84] were, in that order, “C (C (75 to 50%))” and < 10 nM.
For `CNc1cc(N2CCc3c(-c4ccc(CN5CCC6(CCN(C(=O)c7ccc(Cl)c(N8CCC(=O)NC8=O)c7)CC6)C5)cn4)cccc32)nn2c(C(=O)N[C@H]3C[C@H]3F)cnc12` [I-85] the same measures were “B (B (90 to >75%))” and < 1 nM.
The like results for `CNc1cc(N2CCc3c(-c4ccc(CN5CCC(N6CCC(C#Cc7ccc8c(c7)n(C)c(=O)n8C7CCC(=O)NC7=O)CC6)C(F)(F)C5)cn4)cccc32)nn2c(C(=O)N[C@H]3C[C@H]3F)cnc12` (stereo partly drawn) [I-86] were, in that order, “C (C (75 to 50%))” and < 10 nM.
As to `CNc1cc(N2CCc3c(-c4ccc(CN5CC6(CCN(Cc7ccc(N8CCC(=O)NC8=O)c(Cl)c7)CC6(F)F)C5)cn4)cccc32)nn2c(C(=O)N[C@H]3C[C@H]3F)cnc12` [I-87], the “TYK2 MSD OCI-LY10 Dmax %” value is listed as “D (D (<50%))” and the half-maximal degradation concentration (DC50) was < 10 nM.
For `CNc1cc(N2CCc3c(-c4ccc(N5CCN(C(=O)c6ccc(Cl)c(N7CCC(=O)NC7=O)c6)CC5)cn4)cccc32)nn2c(C(=O)N[C@@H]3C[C@@H]3F)cnc12` [I-90] the same measures were “D (D (<50%))” and < 10 nM.
The like results for `CNc1cc(N2CCc3c(-c4ccc(CN5CCC6(CC5)CCN(C(=O)c5ccc(Cl)c(C7CCC(=O)NC7=O)c5)CC6)cn4)cccc32)nn2c(C(=O)N[C@@H]3C[C@@H]3F)cnc12` (stereo partly drawn) [I-91] were, in that order, “B (B (90 to >75%))” and < 1 nM.
